How the values were obtained:
[1] = target: T1, full-length TDP-43 recombinant protein (Homo sapiens, UniProt Q13148); assay: In vitro analysis of TDP-43 fiber formation (negative staining electron microscopy); format: biochemical
T1 construct: Three-micromolar full-length TDP-43 recombinant protein (GenWay); purchased GenWay

[2] = tested on: TDP-43-mediated CFTR exon 9 skipping; assay: Alternative splicing assay (in vivo splicing, CFTR minigene); format: cell-based
Method: Alternative Splicing Assay: TDP-43-mediated CFTR exon 9 skipping assays were performed as previously described. Briefly, cells were cotransfected with TDP-43 plasmid, hCF-(TG)13(T)5 minigenes and the indicated plasmids, including VCP/p97 wt, VCP/p97 QQ, HSPB1, lamin A or progeria, or HSPB1 siRNA. Total RNA of transfectanted cells was isolated by TRIzol reagent (Invitrogen), and RT-PCR was carried out by Superscript III (Invitrogen) using specific primers to amplify exons 8-10 of CFTR according to the manufacturer's protocol. The relative amounts of cDNA were validated on 1.3% agarose gels. […]

SMNA7 cells = assay: Morphology (neurite-like structure) of SMNA7 cells; format: cell-based; conditions: baicalein
From the text: (§1) We investigate whether baicalein can act as a pharmacological chaperone to refold misfolded SMNA7 into a functional prion-like domain, as shown in FIG. 8 (FIG. 10a). […] PFN1 is a known SMN interactor in the cytosol. We further examined whether baicalein attenuated the degradation of the SMNA7 protein. […] We found baicalein increased the length of axons from NSC34 cells expressing SMNA7 by approximately 2-fold (FIG. 10g).

PFN1 and SMNA7 = target: T2, PFN1 and SMNA7 (Homo sapiens, UniProt Q16637); assay: Co-immunoprecipitation of PFN1 and SMNA7; format: cell-based; conditions: in the presence of baicalein
T2 construct: expressed in transfected cells
From the text: as §1

[3] = tested on: NSC34 cells expressing SMNA7; assay: Axon/neurite length of NSC34 motor neurons expressing SMNA7; format: cell-based; conditions: NSC34 cells expressing SMNA7, baicalein 50 μM
From the text: as §1
We increased the amount of functional prion-like domains by overexpressing the TDP-43 prion-like domain (TDP-43-PLD) in NSC34 motor neuron cells expressing the SMNA7 proteins to confirm that the reduced level of the functional prion-like conformer caused axon degeneration in SMNΔ7-expressing neurons. The TDP-43-PLD is expected to adopt a common, structurally similar β sheet to compensate for the prion-like function of SMN through hetero-polymerization. […] Thus, the level of the prion-like conformer is critical for motor neuron survival, and other functionally unrelated prion-like proteins can compensate for the function of the defective protein.

SMA mice (Smn−/−SMN2+/−) = assay: Motor function tests in SMA mice (turnover, tube, negative geotaxis); format: in vivo
From the text: Mice: A mouse model of SMA was produced by deleting exon 7 of the Smn gene and knock-in of the human SMN2 gene (Smn−/−SMN2+/−). We were able to generate a variant that presents a more severe disease symptomatology through back-crossing to obtain a more homogenous genetic background. This model of severe SMA harbors two copies of the SMN2 transgene (Smn−/−SMN2+/−). The mouse model of SMA was generated through crossing the heterozygous knockout mice (Smn+/−SMN2−/−) with the homozygous knockout mice carrying two copies of the SMN2 transgene (Smn−/−SMN2+/+). SMA mice were subjected to daily intraperitoneal injections of baicalein (40 mg/kg/d in alcohol) or alcohol alone (control) from birth and then subjected to motor function tests and survival analysis. Three behavioral tests, the turnover test, tube test and negative geotaxis test, were conducted to evaluate the motor function of mice with SMA (Smn−/−SMN2+/−) and heterozygous littermates (Smn+/−SMN2+/−), as previously described. In the turnover test, the time required for a mouse to right itself and place all four paws on the ground from a prone position was recorded (the cutoff time was 60 s). The tube test was used to determine hind limb strength according to the posture of the hind limbs and the tail; scores ranged from 0 (the worst) to 4 (the best). In the negative geotaxis test, mice were placed on a 45° incline with their head pointing downward. The responses (turning and climbing) were scored from 0 (the worst) to 4 (the best).
A mouse model of SMA received daily intraperitoneal injections of baicalein ([…]) from birth, and we then assessed the animals using motor function tests and survival analyses to determine whether the in vitro findings were recapitulated in a mouse model in vivo (FIG. 10i). However, after baicalein treatment, the functional performance of SMA mice, including righting time, tube score, and tilting score, was improved at the 6th postnatal day (p<0.05), and the results were similar to heterozygous littermates treated with or without baicalein. […] Our studies provide a method for restoring the functional SMN protein by modulating the folding of the SMNA7 C-terminus and SMA-associated mutants to ensure that the protein performs the cellular functions of full-length SMN.

[4] = SMA mice, daily intraperitoneal baicalein 13.6 mg/kg/d from birth, 6th postnatal day, p<0.05

T1 sequence (Q13148 whole entry): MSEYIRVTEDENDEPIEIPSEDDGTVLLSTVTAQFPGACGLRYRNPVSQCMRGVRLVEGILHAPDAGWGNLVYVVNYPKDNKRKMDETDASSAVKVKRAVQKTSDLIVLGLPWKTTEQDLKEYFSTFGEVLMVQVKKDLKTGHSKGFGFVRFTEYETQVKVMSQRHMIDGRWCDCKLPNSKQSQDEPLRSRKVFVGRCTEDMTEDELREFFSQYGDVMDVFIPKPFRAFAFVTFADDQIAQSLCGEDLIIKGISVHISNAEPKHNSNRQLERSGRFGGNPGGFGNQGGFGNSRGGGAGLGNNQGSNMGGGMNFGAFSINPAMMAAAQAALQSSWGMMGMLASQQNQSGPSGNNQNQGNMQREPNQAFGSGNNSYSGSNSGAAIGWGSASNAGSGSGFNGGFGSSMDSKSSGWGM
T2 sequence (Q16637 1-282 isoform Q16637-3): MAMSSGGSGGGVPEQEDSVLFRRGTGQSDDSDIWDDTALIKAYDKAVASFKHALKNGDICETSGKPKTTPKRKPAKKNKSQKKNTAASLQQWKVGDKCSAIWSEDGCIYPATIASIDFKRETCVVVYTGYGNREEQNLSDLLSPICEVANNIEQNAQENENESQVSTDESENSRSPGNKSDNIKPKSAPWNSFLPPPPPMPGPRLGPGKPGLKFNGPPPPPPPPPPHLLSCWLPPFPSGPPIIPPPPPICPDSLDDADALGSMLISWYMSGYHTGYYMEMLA

## O=c1cc(-c2ccccc2)oc2cc(O)c(O)c(O)c12 [baicalein]
[1]; 3 μM TDP-43 with 3 μM baicalein, RT, agitation, 30-90 min, fibers without compound 3 to 10 μm
  length of baicalein-inducing TDP-43 polymers: 0.15-0.9 μm
[1]; equimolar baicalein, time-dependent
  remodeling of TDP-43 fibers, oligomers or natively unfolded monomers: efficiently remodeled into ordered TDP-43 polymers
[2]; VCP/p97-QQ-expressing cells
  CFTR exon 9 skipping: increased CFTR exon 9 skipping
[2]; cells co-transfected with TDP-43 and VCP/p97 R155H mutant
  failure of TDP-43 to promote CFTR exon 9 skipping: corrected
[2]; cells expressing VCP/p97-QQ
  dysfunction caused by FTLD/ALS-linked sporadic mutation R361S of TDP-43: rescued dysfunction
  dysfunction of proline substitution mutant GFP-TDP-43-Q303P: rescued dysfunction
[2]; cells expressing progeria
  TDP-43 dysfunction (CFTR exon 9 skipping): rescued TDP-43 dysfunction caused by progeria in a dose-dependent manner
[2]; cells expressing progeria, baicalein 10 μm
  restoring ratio of exon skipping: 1.31
[2]; cells expressing progeria, baicalein 50 μm
  restoring ratio of exon skipping: 1.91
[2]; cells treated with only baicalein, TDP-43 overexpressed
  TDP-43-mediated CFTR exon 9 skipping: enhanced ability to promote the TDP-43-mediated CFTR exon 9 skipping in a dose-dependent manner
[2]; without co-overexpressing TDP-43 proteins
  exon skipping of CFTR: no effect
SMNA7 cells
  neurite-like structure of SMNA7 cells: increased the neurite-like structure of SMNA7 cells
PFN1 and SMNA7
  interactions between PFN1 and SMNA7: significantly increased
[3]
  increase of length of axons: approximately 2 fold
SMA mice (Smn−/−SMN2+/−); 8th postnatal day, p=0.009
  functional performance in the tube test versus control SMA mice: better than that of the control SMA mice
SMA mice (Smn−/−SMN2+/−); 8th postnatal day, p=0.58
  functional performance better than control SMA mice in the negative geotaxis test: not
SMA mice (Smn−/−SMN2+/−); [4]
  righting time (turnover test): improved
  tilting score (negative geotaxis test): improved
  tube score: improved
